Laboratory results as given in US5637731A (priority 1996, dated 1997).
Several values for one entry are separate records, joined by “and”; a condition that tells them apart may be missing. Identical values can stand only once. Counter-ions that a name gives are not always drawn. Like-named read-outs stand apart in the source and are kept apart here.

Experiments:
[1] = target: muscarinic cholinergic receptor; type: binding, rat; conditions: rat cerebral cortex, ^3 H-QNB 0.25 nM, 25° C., 120 minutes, pH 7.4
[2] = target: muscarinic cholinergic receptor; assay: [^3 H]-Cis-methyldioxolane (^3 H-CD) Binding Assay (High Affinity); conditions: rat cerebral cortex, ^3 H-CD 1.0 nM, 25° C., 120 minutes, pH 7.4; high affinity agonist binding

Row | SMILES | Ki [1] | Ki [2] [µM]
1 | CCN(CC)CC#CCN1CCC(C)C1=O (racemic) [Racemic 1-[4-(1-Diethylamino)-2-butynyl]-3-methyl-2-pyrrolidinone] | 6 µM | 5.1
2 | CC1CCN(CC#CCN(C)C)C1=O (racemic) [Racemic 1-[4-(1-Dimethylamino)-2-butynyl]-3-methyl-2-pyrrolidinone] | 21 µM | 0.41
3 | CC1CCN(CC#CCN2CCC2)C1=O (racemic) [Racemic 1-[4-(1-azetidinyl)-2-butynyl-3-methyl-2-pyrrolidinone, Racemic 1-[4-(1-azetidinyl)-2-butynyl]-3-methyl-2-pyrrolidinone] | 2 µM | 0.054
4 | CC1CCN(CC#CCn2ccnc2)C1=O (racemic) [Racemic 1-[4-(1H-imidazol-1-yl)-2-butynyl]-3-methyl-2-pyrrolidinone] | 6.7 µM | 0.057
5 | CN(C)CC#CCN1CCC(C)(O)C1=O (racemic) [Racemic-1-[4-Dimethylamino)-2-butynyl]-3-hydroxy-3-methyl-2-pyrrolidinone, Racemic 1-[4-(Dimethylamino)-2-butynyl]-3-hydroxy-3-methyl-2-pyrrolidinone] | > 100 µM | > 100
6 | CC1(O)CCN(CC#CCN2CCCC2)C1=O (racemic) [Racemic-3-Hydroxy-3-methyl-1-[4-(1-pyrrolidinyl)-2-butynyl]-2-pyrrolidinone, Racemic 3-hydroxy-3-methyl-1-[4-(1-pyrrolidinyl) 2-butynyl]-2-pyrrolidinone] | 8.6 µM | 5.7
7 | O=C1C(O)CCN1CC#CCn1ccnc1 (stereo not drawn) [1-[4-(1H-Imidazol-1-yl)-2-butynyl]-3-hydroxy-2-pyrrolidinone] | > 100 µM | 2
8 | O=C(NCC#CCN1CCCC1)C(F)(F)F [2,2,2-Trifluoro-N-[4-(1-pyrrolidinyl)-2-butynyl]acetamide monohydrochloride] | 18.5 µM | 8.88
9 | NCC#CCN1CCCC1 [4-(1-Pyrrolidinyl)-2-butyn-1-amine dihydrochloride] | > 100 µM | 13
10 | CC(C)(C)[Si](C)(C)O[C@@H]1CCN(CC#CCN2CCC2)C1=O [(R)-1-[4-(1-Azetidinyl)-2-butynyl]-3-[[(1,1-dimethylethyl)dimethylsilyl]oxy]-2-pyrrolidinone] | > 100 µM | > 100
11 | CS[C@@H]1CCN(CC#CCN(C)C)C1=O [(R)-1-[4-(Dimethylamino)-2-butynyl]-3-(methylthio)-2-pyrrolidinone] | 108 µM | 6.1
12 | C[C@@H]1CCN(CC#CCN(C)C)C1=O [(R)-1-[4-(Dimethylamino)-2-butynyl]-3-methyl-2-pyrrolidinone] | 7.7 µM | 0.073
13 | CN(C)CC#CCN1CC[C@@H](O)C1=O [(R)-1-[4-Dimethylamino)-2-butynyl-3-hydroxy-2-pyrrolidinone] | 105 µM | 0.54
14 | CN(C)CC#CCN1CC[C@@H](OC(=O)C(C)(C)C)C1=O [(R)-2,2-Dimethylpropanoic acid 1-[4-(dimethylamino)-2-butynyl]-2-oxo-3-pyrrolidinyl ester] | 404 µM | –
15 | CC(C)(C)C(=O)O[C@@H]1CCN(CC#CCN2CCCC2)C1=O [(R)-2,2-Dimethylpropanoic acid 2-oxo-1-[4-(1-pyrrolidinyl)-2-butynyl]-3-pyrrolidinyl ester] | 10.2 µM | 0.5
16 | CC(C)C(=O)O[C@@H]1CCN(CC#CCN2CCCC2)C1=O [(R)-2-Methylpropanoic acid 2-oxo-1-[4-(1-pyrrolidinyl)-2-butynyl]-3-pyrrolidinyl ester] | 87 µM | 0.135
17 | CC(=O)O[C@@H]1CCN(CC#CCN(C)CCO)C1=O [(R)-3-(Acetyloxy)-1-[4-[2-(hydroxyethyl)methylamino]-2-butynyl]-2-pyrrolidinone] | > 100 µM | 28.3

Row | SMILES | Ki [1] | Ki [2] [µM]
18 | CS[C@@H]1CCN(CC#CCN2CCCC2)C1=O [(R)-3-(Methylthio)-1-[4-(1-pyrrolidinyl)-2-butynyl]-2-pyrrolidinone] | 3.6 µM | 1.4
19 | N[C@@H]1CCN(CC#CCN2CCCC2)C1=O [(R)-3-Amino-1-[4-(1-pyrrolidinyl)-2-butynyl]-2-pyrrolidinone dihydrochloride] | 6.1 µM | 0.35
20 | CN(C)CC#CCN1CC[C@@H](N)C1=O [(R)-3-Amino-1-[4-(dimethylamino)-2-butynyl]-2-pyrrolidinone dihydrochloride] | > 100 µM | 0.89
21 | [N-]=[N+]=N[C@@H]1CCN(CC#CCN2CCCC2)C1=O [(R)-3-Azido-1-[4-(1-pyrrolidinyl)-2-butynyl]-2-pyrrolidinone] | 28 µM | 0.21
22 | CN(C)CC#CCN1CC[C@@H](N=[N+]=[N-])C1=O [(R)-3-Azido-1-[4-(dimethylamino)-2-butynyl]-2-pyrrolidinone] | > 100 µM | 0.5
23 | O=C1[C@H](O)CCN1CC#CCN1CCCC1 [(R)-3-Hydroxy-1-[4-(1-pyrrolidinyl)-2-butynyl]-2-pyrrolidinone] | 3.4 µM | 0.125
24 | CN(CC#CCN1CC[C@@H](O)C1=O)CCO [(R)-3-Hydroxy-1-[4-[(2-hydroxyethyl)methylamino]-2-butynyl]-2-pyrrolidinone] | > 100 µM | 1.8
25 | CN(CC#CCN1CC[C@@H](O)C1=O)CCCCO [(R)-3-Hydroxy-1-[4-[(4-hydroxybutyl)methylamino]-2-butynyl]-2-pyrrolidinone] | > 100 µM | 1.45
26 | CC(C)(C)C(=O)O[C@@H]1CCN(CC#CC[N+](C)(C)C)C1=O [(R)-3-[3-(2,2-Dimethyl-1-oxopropoxy)-2-oxo-1-pyrrolidinyl]-N,N, N-trimethyl-2-butyn-1-aminium iodide] | > 100 µM | 1.22
27 | CC(C)(C)[Si](C)(C)O[C@@H]1CCN(CC#CCn2ccnc2)C1=O [(R)-3-[[(1,1-Dimethylethyl)-dimethylsilyl]oxy]-1-[4-(1H-imidazol-1-yl)-2-butynyl]-2-pyrrolidinone] | > 100 µM | 14
28 | C[N+](C)(C)CC#CCN1CC[C@@H](N=[N+]=[N-])C1=O [(R)-4-(3-Azido-2-oxo-1-pyrrolidinyl)-N,N,N-trimethyl-2-butyn-1-aminium iodide] | 0.8 µM | 0.039
29 | CCCCCCCCCC(=O)O[C@@H]1CCN(CC#CC[N+](C)(C)C)C1=O [(R)-4-[2-Oxo-3-[(1-oxodecyl)-oxy]-1-pyrrolidinyl]-N,N, N-trimethyl-2-butyn-1-aminium iodide] | 0.2 µM | 0.05
30 | COC(=O)O[C@@H]1CCN(CC#CCN(C)C)C1=O [(R)-Carbonic acid 1-[4-(dimethylamino)-2-butynyl]-2-oxo-3-pyrrolidinyl methyl ester monohydrochloride] | 52 µM | 3.07
31 | CCCCCCCCOC(=O)O[C@@H]1CCN(CC#CCN(C)C)C1=O [(R)-Carbonic acid 1-[4-(dimethylamino)-2-butynyl]-2-oxo-3-pyrrolidinyl octyl ester] | 1.5 µM | 1.04
32 | CC(C)C(=O)O[C@H]1CCN(CC#CCN(C)C)C1=O [(S)-2-Methylpropanoic acid 1-[4-(dimethylamino)-2-butynyl]-2-oxo-3-pyrrolidinyl ester] | 610 µM | –
33 | COC(=O)O[C@H]1CCN(CC#CCN2CCCC2)C1=O [(S)-Carbonic acid methyl 2-oxo-1-[4-(1-pyrrolidinyl)-2-butynyl]-3-pyrrolidinyl ester] | 5.4 µM and 10.4 µM | –
